The results in this text go back to ChEMBL document CHEMBL5154904, “Discovery and Structural Basis of the Selectivity of Potent Cyclic Peptide Inhibitors of MAGE-A4” (J Med Chem, 2022).

Assay [1] deals with T1, Melanoma-associated antigen 4 (Homo sapiens), P43358 [R299A].
T1 sequence (whole entry): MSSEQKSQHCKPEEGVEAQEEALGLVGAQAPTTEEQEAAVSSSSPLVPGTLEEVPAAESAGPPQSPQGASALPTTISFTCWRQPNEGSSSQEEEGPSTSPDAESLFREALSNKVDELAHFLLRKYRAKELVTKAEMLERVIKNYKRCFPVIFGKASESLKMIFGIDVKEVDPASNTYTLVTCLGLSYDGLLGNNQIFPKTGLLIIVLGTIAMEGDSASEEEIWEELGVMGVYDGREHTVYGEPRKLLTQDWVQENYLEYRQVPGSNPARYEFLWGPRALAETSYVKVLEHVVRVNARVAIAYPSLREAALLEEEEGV
Put plainly: Binding affinity to recombinant N-terminal His-tagged MAGEA4-MH domain R299A mutant (unknown origin) expressed in Escherichia coli BL21-(DE3) assessed as increase in thermal stability by SYPRO orange dye based differential scanning fluorimetry. To be noted: dose <= 10.0 µM. Background: DSF heats the sample and reads unfolding from a dye or from intrinsic fluorescence.

The test system of assay [2] is T2, Melanoma-associated antigen 4 (Homo sapiens), P43358 [E225A].
T2 sequence (whole entry): T1 sequence (whole entry) with E225A, A299R
Put plainly: Binding affinity to recombinant N-terminal His-tagged MAGEA4-MH domain E225A mutant (unknown origin) expressed in Escherichia coli BL21-(DE3) assessed as increase in thermal stability by SYPRO orange dye based differential scanning fluorimetry. To be noted: dose <= 10.0 µM.

Assay [3] deals with T3, Melanoma-associated antigen 4 (Homo sapiens), P43358 [D115R].
T3 sequence (whole entry): T1 sequence (whole entry) with D115R, A299R
Put plainly: Binding affinity to recombinant N-terminal His-tagged MAGEA4-MH domain D115R mutant (unknown origin) expressed in Escherichia coli BL21-(DE3) assessed as increase in thermal stability by SYPRO orange dye based differential scanning fluorimetry. As to conditions: dose <= 10.0 µM.

Assay [4] has as its system T4, Melanoma-associated antigen 4 (Homo sapiens), P43358 [V291A].
T4 sequence (whole entry): T1 sequence (whole entry) with V291A, A299R
Put plainly: Binding affinity to recombinant N-terminal His-tagged MAGEA4-MH domain V291A mutant (unknown origin) expressed in Escherichia coli BL21-(DE3) assessed as increase in thermal stability by SYPRO orange dye based differential scanning fluorimetry. To be noted: dose <= 10.0 µM.

The next assay relates to NCI-H1299. Description: Inhibition of MAGEA4 in human NCI-H1299 cell lysate interaction with HA-tagged RAD18 (unknown origin) at 1 uM incubated for overnight by co-immunoprecipitation pull down assay. The format is subcellular.
In assay [5] the test system is T5, Melanoma-associated antigen 4 (Homo sapiens), P43358 [I205A].
T5 sequence (whole entry): T1 sequence (whole entry) with I205A, A299R
Put plainly: Binding affinity to recombinant N-terminal His-tagged MAGEA4-MH domain I205A mutant (unknown origin) expressed in Escherichia coli BL21-(DE3) assessed as increase in thermal stability by SYPRO orange dye based differential scanning fluorimetry. To be noted: dose <= 10.0 µM.

The species entered for assay [6] is Homo sapiens. Put plainly: Inhibition of Eu-W1024 streptavidin-labeled 6 xHis-tagged MAGEA4-MH domain M161A mutant (unknown origin) expressed in Escherichia coli BL21-(DE3) interaction with Ulight-labeled GST-tagged RAD18 (unknown origin) (267 to 402 residues) at 1 uM by LANCE TR-FRET assay. In general terms: Time-resolved FRET reads energy transfer from a long-lived donor to a nearby acceptor.

The species entered for assay [7] is Homo sapiens. Description: Inhibition of Eu-W1024 streptavidin-labeled 6 xHis-tagged MAGEA4-MH domain E225A mutant (unknown origin) expressed in Escherichia coli BL21-(DE3) interaction with Ulight-labeled GST-tagged RAD18 (unknown origin) (267 to 402 residues) at 1 uM by LANCE TR-FRET assay.
Assay [8] concerns the target T6, Melanoma-associated antigen 4 (Homo sapiens, UniProt P43358).
T6 sequence (P43358 whole entry): T1 sequence (whole entry) with A299R
Put plainly: Binding affinity to recombinant N-terminal His-tagged MAGEA4-MH domain (unknown origin) expressed in Escherichia coli BL21-(DE3) by isothermal titration calorimetry. (ITC needs no label: the signal is the heat of the interaction.)

A word on the Kd: it is the concentration at which binding is half-saturated.

SMILES strings stand for the structures. Positions count from the first letter of the chain named. Calls of active or inactive are those of the source. No cut-off for these calls is given here. Positions of bridges follow the written chain, without caps; N, C: chain ends. Residues, ends and D or L forms follow the SMILES beside them.

With `CC[C@H](C)[C@@H]1NC(=O)[C@H](Cc2ccc(O)cc2)NC(=O)CSC[C@@H](C(N)=O)NC(=O)[C@H](CC(N)=O)NC(=O)[C@H](Cc2cnc[nH]2)NC(=O)[C@H](Cc2ccc(O)cc2)NC(=O)[C@H](CC(=O)O)NC(=O)[C@H](Cc2ccc(O)cc2)NC(=O)[C@H](CC(C)C)NC(=O)[C@H](CCCNC(=N)N)NC1=O` ({CH2CO}-YIRLYDYHNC-NH2; thioether N-10), the Tm in assay [1], in assay [2], in [3], in [4] and in [5] was less than 3.5 °C each time. The inhibition result with NCI-H1299, in the assay listed under Homo sapiens [6] and in the assay listed under Homo sapiens [7] was “Active” each time. In addition, the Kd in assay [8] is 9.7 nM.
